Consider 18 compounds from patent US20190374533A1, “COMPOUNDS AND METHODS FOR INHIBITING NHE-MEDIATED ANTIPORT IN THE TREATMENT OF DISORDERS ASSOCIATED WITH FLUID RETENTION OR SALT OVERLOAD AND GASTROINTESTINAL TRACT DISORDERS” (Ardelyx, Inc., priority 2008, published 2019).

In the experiment the target is T1, rat NHE-3 (Rattus norvegicus, UniProt P26433).
T1 construct: expressed in transfected cells; host or cells: Opossum kidney (OK) cells (ATCC), electroporated
The experiment can be described thus: Cell-based assay of NHE-3 activity (Pharmacological Test Example 1). As to conditions: OK cells expressing rat NHE-3, 0-30 uM test compound, 5 uM EIPA; for IC50: read-out: rat NHE-3 Average pIC50 (converted). As for the experimental part:
Rat NHE-3-mediated Na^+-dependent H^+ antiport was measured using a modification of the pH sensitive dye method originally reported by Tsien (Proc. Natl. Acad. Sci. USA. (1984) 81(23): 7436-7440). Opossum kidney (OK) cells were obtained from the ATCC and propagated per their instructions. The rat NHE-3 gene was introduced into OK cells via electroporation, seeded into 96 well plates and grown overnight. Medium was aspirated from the wells, cells were washed twice with NaCl-HEPES buffer (100 mM NaCl, 50 mM HEPES, 10 mM glucose, 5 mM KCl, 2 mM CaCl2, 1 mM MgCl2, pH 7.4), then incubated for 30 min at room temperature with NH4Cl-HEPES buffer (20 mM NH4Cl, 80 mM NaCl, 50 mM HEPES, 5 mM KCl, 2 mM CaCl2), 1 mM MgCl2, pH 7.4) containing 5 uM BCECF-AM (Invitrogen). Cells were washed twice with Ammonium free, Nat-free HEPES (100 mM choline, 50 mM HEPES, 10 mM glucose, 5 mM KCl, 2 mM CaCl2), 1 mM MgCl2, pH 7.4) and incubated in the same buffer for 10 minutes at room temperature to lower intracellular pH. […] Initial rates were plotted as the average 3-6 replicates, and pIC50 values were estimated using GraphPad Prism.

T1 sequence (P26433 29-831): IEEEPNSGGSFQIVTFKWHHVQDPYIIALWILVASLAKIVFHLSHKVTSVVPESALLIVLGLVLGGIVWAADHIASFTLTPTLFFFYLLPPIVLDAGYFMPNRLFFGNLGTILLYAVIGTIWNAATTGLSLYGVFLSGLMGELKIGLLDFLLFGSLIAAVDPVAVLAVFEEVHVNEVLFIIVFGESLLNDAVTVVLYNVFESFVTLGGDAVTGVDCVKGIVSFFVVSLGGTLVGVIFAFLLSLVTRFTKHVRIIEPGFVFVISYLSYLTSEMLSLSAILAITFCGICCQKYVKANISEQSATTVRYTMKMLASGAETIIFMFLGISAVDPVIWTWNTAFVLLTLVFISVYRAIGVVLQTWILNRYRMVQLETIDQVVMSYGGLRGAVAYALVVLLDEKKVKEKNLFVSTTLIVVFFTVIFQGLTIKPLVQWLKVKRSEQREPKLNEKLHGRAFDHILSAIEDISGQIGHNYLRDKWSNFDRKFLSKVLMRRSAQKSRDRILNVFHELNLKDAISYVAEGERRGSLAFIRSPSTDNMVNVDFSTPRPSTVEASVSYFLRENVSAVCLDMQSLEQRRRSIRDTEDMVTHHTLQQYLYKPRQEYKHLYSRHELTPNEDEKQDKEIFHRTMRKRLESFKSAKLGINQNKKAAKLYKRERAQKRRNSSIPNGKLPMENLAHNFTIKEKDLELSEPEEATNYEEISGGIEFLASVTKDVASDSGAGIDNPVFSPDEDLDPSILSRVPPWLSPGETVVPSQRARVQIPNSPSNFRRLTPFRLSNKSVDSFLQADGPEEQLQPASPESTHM

Take `C/C(=C\c1cc(F)c(Oc2ccc(S(=O)(=O)NCCOCCOCCOCCNC(=O)NCCOCCOCCOCCNS(=O)(=O)c3ccc(Oc4c(F)cc(/C=C(\C)C(=O)N=C(N)N)cc4F)cc3)cc2)c(F)c1)C(=O)N=C(N)N` [Example 46, N,N′-(13-oxo-3,6,9,17,20,23-hexaoxa-12,14-diazapentacosane-1,25-diyl)bis[(E)-N-(diaminomethylene)-3-(3,5-difluoro-4-(4-sulfamoylphenoxy)phenyl)-2-methylacrylamide]]: the IC50 is 100 to 1000 nM.

Turning to `CN1Cc2c(Cl)cc(Cl)cc2C(c2cccc(S(=O)(=O)NCCOCCOCCOCCN)c2)C1` (stereo not drawn) [Example 28, N-(2-(2-(2-(2-aminoethoxy)ethoxy)ethoxy)ethyl)-3-(6,8-dichloro-2-methyl-1,2,3,4-tetrahydroisoquinolin-4-yl)benzenesulfonamide], the “rat NHE-3 Average pIC50” value fell in the range of 6 to 7.

For the compound `C/C(=C\c1cc(F)c(Oc2ccc(S(=O)(=O)NCCOCCOCCOCCOCCOCCOCCNC(=O)C(O)C(O)C(=O)NCCOCCOCCOCCOCCOCCOCCNS(=O)(=O)c3ccc(Oc4c(F)cc(/C=C(\C)C(=O)N=C(N)N)cc4F)cc3)cc2)c(F)c1)C(=O)N=C(N)N` (stereo not drawn) [Example 104, N1,N4-bis(20-(4-(4-((E)-3-(diaminomethyleneamino)-2-methyl-3-oxoprop-1-enyl)-2,6-difluorophenoxy)phenylsulfonamido)-3,6,9,12,15,18-hexaoxaicosyl)-2,3-dihydroxysuccinamide], the “rat NHE-3 Average pIC50” value is 6 to 7.

For `CN1Cc2c(Cl)cc(Cl)cc2C(c2cccc(S(=O)(=O)NCCOCCOCCOCCn3cc(COCc4cn(CCOCCOCCOCCNS(=O)(=O)c5cccc(C6CN(C)Cc7c(Cl)cc(Cl)cc76)c5)nn4)nn3)c2)C1` (stereo not drawn) [Example 81, N,N′-(2,2′-(2,2-(2,2′-(2,2′-(4,4′-oxybis(methylene)bis(1H-1,2,3-triazole-4,1-diyl))bis(ethane-2,1-diyl))bis(oxy)bis(ethane-2,1-diyl))bis(oxy)bis(ethane-2,1-diyl))bis(oxy)bis(ethane-2,1-diyl))bis(3-(6,8-dichloro-2-methyl-1,2,3,4-tetrahydroisoquinolin-4-yl)benzenesulfonamide)], the IC50 was less than 100 nM.

In the case of `N=C(N)Nc1nc(-c2cccc(N3CCN(CCCN)CC3)c2)c2cc(Cl)ccc2n1` [Example 65, 1-(4-(3-(4-(3-aminopropyl)piperazin-1-yl)phenyl)-6-chloroquinazolin-2-yl)guanidine], the “rat NHE-3 Average pIC50” value is recorded as 6 to 7.

`CN1Cc2c(Cl)cc(Cl)cc2C(c2ccc(S(=O)(=O)NCCOCCOCCOCCNC(=O)NCCOCCOCCOCCNS(=O)(=O)c3ccc(C4CN(C)Cc5c(Cl)cc(Cl)cc54)cc3)cc2)C1` (stereo not drawn) [Example 103, N,N′-(13-oxo-3,6,9,17,20,23-hexaoxa-12,14-diazapentacosane-1,25-diyl)bis(4-(6,8-dichloro-2-methyl-1,2,3,4-tetrahydroisoquinolin-4-yl)benzenesulfonamide)]: the “rat NHE-3 Average pIC50” value is given as more than 7.

As to `CN1Cc2c(Cl)cc(Cl)cc2C(c2ccc(S(=O)(=O)NCCOCCOCCNC(=O)[C@H](O)[C@@H](O)C(=O)NCCOCCOCCNS(=O)(=O)c3ccc(C4CN(C)Cc5c(Cl)cc(Cl)cc54)cc3)cc2)C1` (stereo partly drawn) [Example 207, (2R,3R)—N1,N4-bis(2-(2-(2-(4-(6,8-dichloro-2-methyl-1,2,3,4-tetrahydroisoquinolin-4-yl)phenylsulfonamido)ethoxy)ethoxy)ethyl)-2,3-dihydroxysuccinamide], the “rat NHE-3 Average pIC50” value fell in the range of 6 to 7.

For `CN1Cc2c(Cl)cc(Cl)cc2C(c2cccc(S(=O)(=O)NCCOCCOCCNCc3ccc(CNCCOCCOCCNS(=O)(=O)c4cccc(C5CN(C)Cc6c(Cl)cc(Cl)cc65)c4)cc3)c2)C1` (stereo not drawn) [Example 206, N,N′-(2,2′-(2,2′-(2,2′-(1,4-phenylenebis(methylene))bis(azanediyl)bis(ethane-2,1-diyl))bis(oxy)bis(ethane-2,1-diyl))bis(oxy)bis(ethane-2,1-diyl))bis(3-(6,8-dichloro-2-methyl-1,2,3,4-tetrahydroisoquinolin-4-yl)benzenesulfonamide)], the “rat NHE-3 Average pIC50” value is recorded as more than 7.

`CN1Cc2c(Cl)cc(Cl)cc2C(c2cccc(S(=O)(=O)NCCOCCOCCOCCNC(=O)Nc3ccc(NC(=O)NCCOCCOCCOCCNS(=O)(=O)c4cccc(C5CN(C)Cc6c(Cl)cc(Cl)cc65)c4)cc3)c2)C1` (stereo not drawn) [Example 209, N,N′-(1,1′-(1,4-phenylenebis(azanediyl))bis(1-oxo-5,8,11-trioxa-2-azatridecane-13,1-diyl))bis(3-(6,8-dichloro-2-methyl-1,2,3,4-tetrahydroisoquinolin-4-yl)benzenesulfonamide)]: the IC50 was 1000 to 10000 nM.

Take `CN1Cc2c(Cl)cc(Cl)cc2C(c2cccc(S(=O)(=O)NCCOCCOCCOCCNC(=O)NCCOCCOCCOCCNS(=O)(=O)c3cccc(C4CN(C)Cc5c(Cl)cc(Cl)cc54)c3)c2)C1` (stereo not drawn) [Example 100, N,N′-(13-oxo-3,6,9,17,20,23-hexaoxa-12,14-diazapentacosane-1,25-diyl)bis(3-(6,8-dichloro-2-methyl-1,2,3,4-tetrahydroisoquinolin-4-yl)benzenesulfonamide)]: the “rat NHE-3 Average pIC50” value fell in the range of 6 to 7.

Regarding `CN1Cc2c(Cl)cc(Cl)cc2C(c2cccc(S(=O)(=O)NCCOCCOCCOCCNC(=O)CCCCCCC(=O)NCCOCCOCCOCCNS(=O)(=O)c3cccc(C4CN(C)Cc5c(Cl)cc(Cl)cc54)c3)c2)C1` (stereo not drawn) [Example 29, N1,N8-bis(2-(2-(2-(2-(3-(6,8-dichloro-2-methyl-1,2,3,4-tetrahydroisoquinolin-4-yl)phenylsulfonamido)ethoxy)ethoxy)ethoxy)ethyl)octanediamide], the “rat NHE-3 Average pIC50” value is listed as 6 to 7.

On to `N=C(N)N1CCN(c2ccc(-c3nc(N=C(N)N)nc4ccc(Cl)cc34)cc2)CC1` [Example 66, 4-(4-(6-chloro-2-(diaminomethyleneamino)quinazolin-4-yl)phenyl)piperazine-1-carboximidamide], for which the “rat NHE-3 Average pIC50” value fell in the range of 6 to 7.

Regarding `C/C(=C\c1cc(F)c(Oc2ccc(S(=O)(=O)NCCOCCOCCOCCNC(=O)CCOCCOCCOCCOCCOCCOCCOCCOCCOCCC(=O)NCCOCCOCCOCCNS(=O)(=O)c3ccc(Oc4c(F)cc(/C=C(\C)C(=O)N=C(N)N)cc4F)cc3)cc2)c(F)c1)C(=O)N=C(N)N` [Example 102, N1,N31-bis(2-(2-(2-(2-(4-(4-((E)-3 (diaminomethyleneamino)-2-methyl-3-oxoprop-1-enyl)-2,6-difluorophenoxy)phenylsulfonamido)ethoxy)ethoxy)ethoxy)ethyl)-4,7,10,13,16,19,22,25,28-nonaoxahentriacontane-1,31-diamide], the IC50 was 100 to 1000 nM.

For `CN1Cc2c(Cl)cc(Cl)cc2C(c2cccc(S(=O)(=O)NCCOCCOCCNC(=O)COCC(=O)NCCOCCOCCNS(=O)(=O)c3cccc(C4CN(C)Cc5c(Cl)cc(Cl)cc54)c3)c2)C1` (stereo not drawn) [Example 195, 2,2′-oxybis(N-(2-(2-(2-(3-(6,8-dichloro-2-methyl-1,2,3,4-tetrahydroisoquinolin-4-yl)phenylsulfonamido)ethoxy)ethoxy)ethyl)acetamide)], the “rat NHE-3 Average pIC50” value is more than 7.

With `CN1Cc2c(Cl)cc(Cl)cc2[C@H](c2ccc(S(=O)(=O)NCCOCCOCCOCCNC(=O)NCCCCNC(=O)NCCOCCOCCOCCNS(=O)(=O)c3ccc([C@@H]4CN(C)Cc5c(Cl)cc(Cl)cc54)cc3)cc2)C1` (single isomer, unassigned) [Example 251, (S or R)—N,N′-(13,20-dioxo-3,6,9,24,27,30-hexaoxa-12,14,19,21-tetraazadotriacontane-1,32-diyl)bis(4-((S or R)-6,8-dichloro-2-methyl-1,2,3,4-tetrahydroisoquinolin-4-yl)benzenesulfonamide)], the IC50 was less than 100 nM.

For `CN1Cc2c(Cl)cc(Cl)cc2C(c2cccc(S(=O)(=O)NCCOCCOCCOCCNC(=O)CCOCCOCCOCCOCCOCCOCCOCCOCCOCCC(=O)NCCOCCOCCOCCNS(=O)(=O)c3cccc(C4CN(C)Cc5c(Cl)cc(Cl)cc54)c3)c2)C1` (stereo not drawn) [Example 97, N1,N31-bis(2-(2-(2-(2-(3-(6,8-dichloro-2-methyl-1,2,3,4-tetrahydroisoquinolin-4-yl)phenylsulfonamido)ethoxy)ethoxy)ethoxy)ethyl)-4,7,10,13,16,19,22,25,28-nonaoxahentriacontane-1,31-diamide], the “rat NHE-3 Average pIC50” value is 6 to 7.

Turning to `C/C(=C\c1cc(F)c(Oc2ccc(S(=O)(=O)NCCOCCOCCOCCOCCOCCOCCNC(=O)[C@H](O)[C@@H](O)C(=O)NCCOCCOCCOCCOCCOCCOCCNS(=O)(=O)c3ccc(Oc4c(F)cc(/C=C(\C)C(=O)N=C(N)N)cc4F)cc3)cc2)c(F)c1)C(=O)N=C(N)N` [Example 210, (2R,3R)—N1,N4-bis(20-(4-(4-((E)-3-(diaminomethyleneamino)-2-methyl-3-oxoprop-1-enyl)-2,6-difluorophenoxy)phenylsulfonamido)-3,6,9,12,15,18-hexaoxaicosyl)-2,3-dihydroxysuccinamide], the “rat NHE-3 Average pIC50” value was 6 to 7.

With `Nc1cccc(C2CN(CCOCCOCCOCCN3Cc4c(Cl)cc(Cl)cc4C(c4cccc(N)c4)C3)Cc3c(Cl)cc(Cl)cc32)c1` (stereo not drawn) [Example 171, 3,3′-(2,2′-(2,2′-(2,2′-oxybis(ethane-2,1-diyl)bis(oxy))bis(ethane-2,1-diyl))bis(6,8-dichloro-1,2,3,4-tetrahydroisoquinoline-4,2-diyl))dianiline], the “rat NHE-3 Average pIC50” value is listed as less than 5.0.
